# Reference: US20240358693A1, “METHODS OF TREATING PAIN” (Aisa Pharma, Inc., priority 2023, published 2024)
# System: participants with SSc-RP
# Assay: Frequency of weekly RP attacks (all attacks; primary efficacy endpoint)
# Format: in vivo, human
# Conditions: for Weekly RP Attacks, Q3 / Weekly RP Attacks Change from Baseline, Max / Weekly RP Attacks Change from Baseline, Mean / Weekly RP Attacks Change from Baseline, Median / Weekly RP Attacks Change from Baseline, Min / Weekly RP Attacks Change from Baseline, Q1 / Weekly RP Attacks Change from Baseline, Q3 / Weekly RP Attacks Percent Change from Baseline, Max / Weekly RP Attacks Percent Change from Baseline, Mean / Weekly RP Attacks Percent Change from Baseline, Median / Weekly RP Attacks Percent Change from Baseline, Min / Weekly RP Attacks Percent Change from Baseline, Q1 / Weekly RP Attacks Percent Change from Baseline, Q3 / Weekly RP Attacks, Max / Weekly RP Attacks, Mean / Weekly RP Attacks, Median / Weekly RP Attacks, Min / Weekly RP Attacks, Q1 / Weekly RP Attacks Change from Baseline, Mean (SD) / Weekly RP Attacks Percent Change from Baseline, Mean (SD) / Weekly RP Attacks, Mean (SD): all attacks, tadalafil 5 mg daily
# Description: Percent change from baseline evaluation for frequency of weekly RP attacks were or will be used as the primary efficacy variable. The sponsor-developed participant-informed diary will be used to record data. Frequency of weekly RP attacks is defined as the total number of RP attacks divided by the number of days with available diary data within the last 7 days of each dosing period then multiplied by 7. Total number of RP attacks during the last 7 days of screening period divided by the number of days with available data then multiplied by 7 will be used as baseline for the analysis of all periods. The variable will be calculated as follows:
# Percentage change={(weekly RP attacks for the last 7 days of each dosing period−Baseline weekly RP attacks)/Baseline weekly RP attacks}*100%.
# Absolute change=weekly RP attacks for the last 7 days of each dosing period−Baseline weekly RP attacks
# Percent change from baseline evaluation for frequency of weekly RP attacks was and will be the primary efficacy endpoint. Frequency of weekly RP attacks is defined as the total number of RP attacks divided by the number of days with available diary data within the last 7 days of each dosing period then multiplied by 7. Total number of RP attacks during the last 7 days of screening period divided by the number of days with available data then multiplied by 7 will be used as baseline for the analysis of all periods.
# Percent change from baseline evaluation for frequency of weekly RP attacks were the primary efficacy endpoint. Data collected in the last 7 days of each dosing period were used for this analysis. Screening assessments were used as baseline for the analysis of all periods. No multiple comparison adjustment were used to control alpha for the multiple comparisons. Mixed effects model were used for analysis of the primary endpoint according to the crossover design. Other efficacy endpoints of continuous variables were analyzed using similar methodology. For nominal data, chi-square tests were applied. Generalized Estimating Equations method were used, as appropriate, for adjusting for potential confounding factors. In addition, the final analysis assessed whether in this study of severe Raynaud's disease participants, the minimally important difference, previously concluded of 14-15 points on the 100 point RCS scale had been achieved in the cilnidipine dose group. It also recorded the percentage of participants achieving a PASS (34 point difference from baseline on a 0-100 VAS) in each treatment group.
# [1] = by baseline RCS, first subgroup, cilnidipine 10 mg
# [2] = by baseline RCS, first subgroup, cilnidipine 20 mg
# [3] = by baseline RCS, first subgroup, pooled cilnidipine 10 mg and 20 mg
# [4] = pooled cilnidipine 10 mg and 20 mg
smiles,measurement,setting,value
"COCCOC(=O)C1=C(C)NC(C)=C(C(=O)OC/C=C/c2ccccc2)C1c1cccc([N+](=O)[O-])c1 (stereo not shown) [Cilnidipine, cilnidipine]","Weekly RP Attacks, Q3","excluding outliers, pooled cilnidipine 10 mg and 20 mg",23.00
same,"Weekly RP Attacks Change from Baseline, Max",[1],"−9.0, −9.0"
same,"Weekly RP Attacks Change from Baseline, Mean",[1],−9.00
same,"Weekly RP Attacks Change from Baseline, Median",[1],−9.00
same,"Weekly RP Attacks Change from Baseline, Min",[1],"−9.0, −9.0"
same,"Weekly RP Attacks Change from Baseline, Q1",[1],"−9.00, −9.00"
same,"Weekly RP Attacks Change from Baseline, Q3",[1],"−9.00, −9.00"
same,"Weekly RP Attacks Percent Change from Baseline, Max",[1],"−28.1, −28.1%"
same,"Weekly RP Attacks Percent Change from Baseline, Mean",[1],−28.13%
same,"Weekly RP Attacks Percent Change from Baseline, Median",[1],−28.13%
same,"Weekly RP Attacks Percent Change from Baseline, Min",[1],"−28.1, −28.1%"
same,"Weekly RP Attacks Percent Change from Baseline, Q1",[1],"−28.13, −28.13%"
same,"Weekly RP Attacks Percent Change from Baseline, Q3",[1],"−28.13, −28.13%"
same,"Weekly RP Attacks, Max",[1],"23.0, 23.0"
same,"Weekly RP Attacks, Mean",[1],23.00
same,"Weekly RP Attacks, Median",[1],23.00
same,"Weekly RP Attacks, Min",[1],"23.0, 23.0"
same,"Weekly RP Attacks, Q1",[1],"23.00, 23.00"
same,"Weekly RP Attacks, Q3",[1],"23.00, 23.00"
same,"Weekly RP Attacks Change from Baseline, Max",[2],−4.3
same,"Weekly RP Attacks Change from Baseline, Mean",[2],−6.67
same,"Weekly RP Attacks Change from Baseline, Median",[2],−6.67
same,"Weekly RP Attacks Change from Baseline, Min",[2],−9.0
same,"Weekly RP Attacks Change from Baseline, Q1",[2],−9.00
same,"Weekly RP Attacks Change from Baseline, Q3",[2],−4.33
same,"Weekly RP Attacks Percent Change from Baseline, Max",[2],−45.0%
same,"Weekly RP Attacks Percent Change from Baseline, Mean",[2],−45.71%
same,"Weekly RP Attacks Percent Change from Baseline, Median",[2],−45.71%
same,"Weekly RP Attacks Percent Change from Baseline, Min",[2],−46.4%
same,"Weekly RP Attacks Percent Change from Baseline, Q1",[2],−46.43%
same,"Weekly RP Attacks Percent Change from Baseline, Q3",[2],−45.00%
same,"Weekly RP Attacks, Max",[2],11.0
same,"Weekly RP Attacks, Mean",[2],8.00
same,"Weekly RP Attacks, Median",[2],8.00
same,"Weekly RP Attacks, Min",[2],5.0
same,"Weekly RP Attacks, Q1",[2],5.00
same,"Weekly RP Attacks, Q3",[2],11.00
same,"Weekly RP Attacks Change from Baseline, Max",[3],−4.3
same,"Weekly RP Attacks Change from Baseline, Mean",[3],−7.44
same,"Weekly RP Attacks Change from Baseline, Median",[3],−9.00
same,"Weekly RP Attacks Change from Baseline, Min",[3],−9.0
same,"Weekly RP Attacks Change from Baseline, Q1",[3],−9.00
same,"Weekly RP Attacks Change from Baseline, Q3",[3],−4.33
same,"Weekly RP Attacks Percent Change from Baseline, Max",[3],−28.1%
same,"Weekly RP Attacks Percent Change from Baseline, Mean",[3],−39.85%
same,"Weekly RP Attacks Percent Change from Baseline, Median",[3],−45.00%
same,"Weekly RP Attacks Percent Change from Baseline, Min",[3],−46.4%
same,"Weekly RP Attacks Percent Change from Baseline, Q1",[3],−46.43%
same,"Weekly RP Attacks Percent Change from Baseline, Q3",[3],−28.13%
same,"Weekly RP Attacks, Max",[3],23.0
same,"Weekly RP Attacks, Mean",[3],13.00
same,"Weekly RP Attacks, Median",[3],11.00
same,"Weekly RP Attacks, Min",[3],5.0
same,"Weekly RP Attacks, Q1",[3],5.00
same,"Weekly RP Attacks, Q3",[3],23.00
same,"Weekly RP Attacks Change from Baseline, Max",cilnidipine 10 mg,"−9.0, −9.0"
same,"Weekly RP Attacks Change from Baseline, Mean (SD)",cilnidipine 10 mg,−9.00
same,"Weekly RP Attacks Change from Baseline, Median",cilnidipine 10 mg,−9.00
same,"Weekly RP Attacks Change from Baseline, Min",cilnidipine 10 mg,"−9.0, −9.0"
same,"Weekly RP Attacks Change from Baseline, Q1",cilnidipine 10 mg,"−9.00, −9.00"
same,"Weekly RP Attacks Change from Baseline, Q3",cilnidipine 10 mg,"−9.00, −9.00"
same,"Weekly RP Attacks Percent Change from Baseline, Max",cilnidipine 10 mg,"−28.1, −28.1%"
same,"Weekly RP Attacks Percent Change from Baseline, Mean (SD)",cilnidipine 10 mg,−28.13%
same,"Weekly RP Attacks Percent Change from Baseline, Median",cilnidipine 10 mg,−28.13%
same,"Weekly RP Attacks Percent Change from Baseline, Min",cilnidipine 10 mg,"−28.1, −28.1%"
same,"Weekly RP Attacks Percent Change from Baseline, Q1",cilnidipine 10 mg,"−28.13, −28.13%"
same,"Weekly RP Attacks Percent Change from Baseline, Q3",cilnidipine 10 mg,"−28.13, −28.13%"
same,"Weekly RP Attacks, Max",cilnidipine 10 mg,"23.0, 23.0"
same,"Weekly RP Attacks, Mean (SD)",cilnidipine 10 mg,23.00
same,"Weekly RP Attacks, Median",cilnidipine 10 mg,23.00
same,"Weekly RP Attacks, Min",cilnidipine 10 mg,"23.0, 23.0"
same,"Weekly RP Attacks, Q1",cilnidipine 10 mg,"23.00, 23.00"
same,"Weekly RP Attacks, Q3",cilnidipine 10 mg,"23.00, 23.00"
same,"Weekly RP Attacks Change from Baseline, Max",cilnidipine 20 mg,−4.3
same,"Weekly RP Attacks Change from Baseline, Mean (SD)",cilnidipine 20 mg,−6.67 (3.300)
same,"Weekly RP Attacks Change from Baseline, Median",cilnidipine 20 mg,−6.67
same,"Weekly RP Attacks Change from Baseline, Min",cilnidipine 20 mg,−9.0
same,"Weekly RP Attacks Change from Baseline, Q1",cilnidipine 20 mg,−9.00
same,"Weekly RP Attacks Change from Baseline, Q3",cilnidipine 20 mg,−4.33
same,"Weekly RP Attacks Percent Change from Baseline, Max",cilnidipine 20 mg,−45.0%
same,"Weekly RP Attacks Percent Change from Baseline, Mean (SD)",cilnidipine 20 mg,−45.71 (1.010) Percent
same,"Weekly RP Attacks Percent Change from Baseline, Median",cilnidipine 20 mg,−45.71%
same,"Weekly RP Attacks Percent Change from Baseline, Min",cilnidipine 20 mg,−46.4%
same,"Weekly RP Attacks Percent Change from Baseline, Q1",cilnidipine 20 mg,−46.43%
same,"Weekly RP Attacks Percent Change from Baseline, Q3",cilnidipine 20 mg,−45.00%
same,"Weekly RP Attacks, Max",cilnidipine 20 mg,11.0
same,"Weekly RP Attacks, Mean (SD)",cilnidipine 20 mg,8.00 (4.243)
same,"Weekly RP Attacks, Median",cilnidipine 20 mg,8.00
same,"Weekly RP Attacks, Min",cilnidipine 20 mg,5.0
same,"Weekly RP Attacks, Q1",cilnidipine 20 mg,5.00
same,"Weekly RP Attacks, Q3",cilnidipine 20 mg,11.00
same,"Weekly RP Attacks Change from Baseline, Max",[4],−4.3
same,"Weekly RP Attacks Change from Baseline, Mean (SD)",[4],−7.44 (2.694)
same,"Weekly RP Attacks Change from Baseline, Median",[4],−9.00
same,"Weekly RP Attacks Change from Baseline, Min",[4],−9.0
same,"Weekly RP Attacks Change from Baseline, Q1",[4],−9.00
same,"Weekly RP Attacks Change from Baseline, Q3",[4],−4.33
same,"Weekly RP Attacks Percent Change from Baseline, Max",[4],−28.1%
same,"Weekly RP Attacks Percent Change from Baseline, Mean (SD)",[4],−39.85 (10.180) Percent
same,"Weekly RP Attacks Percent Change from Baseline, Median",[4],−45.00%
same,"Weekly RP Attacks Percent Change from Baseline, Min",[4],−46.4%
same,"Weekly RP Attacks Percent Change from Baseline, Q1",[4],−46.43%
same,"Weekly RP Attacks Percent Change from Baseline, Q3",[4],−28.13%
same,"Weekly RP Attacks, Max",[4],23.0
same,"Weekly RP Attacks, Mean (SD)",[4],13.00 (9.165)
same,"Weekly RP Attacks, Median",[4],11.00
same,"Weekly RP Attacks, Min",[4],5.0
same,"Weekly RP Attacks, Q1",[4],5.00
same,"Weekly RP Attacks, Q3",[4],23.00
same,reduction in weekly attack frequency (primary endpoint),"cilnidipine 20 mg, 19% with placebo",43%
same,"reduction in weekly attack frequency, typical attacks",pooled cilnidipine monotherapy or cilnidipine plus tadalafil treated patients (n=7),−31 to −40%
same,Attacks reduced,summary of data (Table S),43%_vs 23% with
